Test results from BindingDB's records for doi:10.1016/j.str.2004.10.004 (Plexxikon, 2004).

Key:
[1] = target: High affinity cAMP-specific and IBMX-insensitive 3',5'-cyclic phosphodiesterase 8A (Homo sapiens, UniProt O60658); assay: Phosphodiesterase (PDE) Inhibition Assay
[2] = target: T1, Isoform 4 of Dual 3',5'-cyclic-AMP and -GMP phosphodiesterase 11A (PDE11A1) 35-489] (Homo sapiens, UniProt Q9HCR9); assay: Phosphodiesterase (PDE) Inhibition Assay
T1 sequence (Q9HCR9 whole entry): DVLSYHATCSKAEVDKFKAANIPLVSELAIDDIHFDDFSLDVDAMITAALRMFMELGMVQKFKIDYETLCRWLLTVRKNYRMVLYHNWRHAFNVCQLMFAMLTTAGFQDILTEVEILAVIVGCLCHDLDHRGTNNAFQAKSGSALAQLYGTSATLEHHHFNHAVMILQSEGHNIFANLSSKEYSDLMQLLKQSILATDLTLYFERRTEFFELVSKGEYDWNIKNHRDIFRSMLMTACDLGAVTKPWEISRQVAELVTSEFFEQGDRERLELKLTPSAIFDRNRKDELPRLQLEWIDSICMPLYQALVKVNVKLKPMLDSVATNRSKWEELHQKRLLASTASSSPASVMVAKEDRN

[3] = target: T2, cAMP and cAMP-inhibited cGMP 3',5'-cyclic phosphodiesterase 10A [432-779] (Homo sapiens, UniProt Q9Y233); assay: Phosphodiesterase (PDE) Inhibition Assay
T2 construct: 432-779

[4] = target: T3, cGMP-dependent 3',5'-cyclic phosphodiesterase [574-941] (Homo sapiens, UniProt O00408); assay: Phosphodiesterase (PDE) Inhibition Assay
T3 construct: 574-941

[5] = target: Dual specificity calcium/calmodulin-dependent 3',5'-cyclic nucleotide phosphodiesterase 1B (Homo sapiens, UniProt Q01064); assay: Phosphodiesterase (PDE) Inhibition Assay; conditions: pH 7.5; 30 °C
[6] = target: T4, cAMP-specific 3',5'-cyclic phosphodiesterase 7B [91-450] (Homo sapiens, UniProt Q9NP56); assay: Phosphodiesterase (PDE) Inhibition Assay
T4 construct: 91-450

[7] = target: T5, cGMP-inhibited 3',5'-cyclic phosphodiesterase 3B [650-1084] (Homo sapiens, UniProt Q13370); assay: Phosphodiesterase (PDE) Inhibition Assay
T5 construct: 650-1084

[8] = target: T6, High affinity cGMP-specific 3',5'-cyclic phosphodiesterase 9A [226-593] (Homo sapiens, UniProt O76083)
T6 construct: 226-593

[9] = target: T7, cGMP-specific 3',5'-cyclic phosphodiesterase [531-875] (Homo sapiens, UniProt O76074); assay: Phosphodiesterase (PDE) Inhibition Assay
T7 construct: 531-875

[10] = target: cAMP-specific 3',5'-cyclic phosphodiesterase 4D [372-376,381-715,S375G,I381V,S383G,G384S,V385H,K386M) (Homo sapiens, UniProt Q08499, S375G/I381V/S383G/G384S/V385H/K386M); assay: Phosphodiesterase (PDE) Inhibition Assay

T3 sequence (O00408 574-941): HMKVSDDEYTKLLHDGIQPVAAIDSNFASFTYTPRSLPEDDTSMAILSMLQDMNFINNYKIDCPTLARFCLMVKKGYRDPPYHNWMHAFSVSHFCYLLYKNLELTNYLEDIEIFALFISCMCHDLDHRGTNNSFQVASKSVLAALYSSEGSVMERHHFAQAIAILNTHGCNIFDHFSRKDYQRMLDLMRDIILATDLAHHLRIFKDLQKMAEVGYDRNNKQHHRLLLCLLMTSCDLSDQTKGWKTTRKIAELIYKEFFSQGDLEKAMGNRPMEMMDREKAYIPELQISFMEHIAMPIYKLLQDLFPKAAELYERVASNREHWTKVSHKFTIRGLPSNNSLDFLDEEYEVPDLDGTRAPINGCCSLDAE
High affinity cAMP-specific and IBMX-insensitive 3',5'-cyclic phosphodiesterase 8A, sequence (O60658 whole entry, canonical isoform): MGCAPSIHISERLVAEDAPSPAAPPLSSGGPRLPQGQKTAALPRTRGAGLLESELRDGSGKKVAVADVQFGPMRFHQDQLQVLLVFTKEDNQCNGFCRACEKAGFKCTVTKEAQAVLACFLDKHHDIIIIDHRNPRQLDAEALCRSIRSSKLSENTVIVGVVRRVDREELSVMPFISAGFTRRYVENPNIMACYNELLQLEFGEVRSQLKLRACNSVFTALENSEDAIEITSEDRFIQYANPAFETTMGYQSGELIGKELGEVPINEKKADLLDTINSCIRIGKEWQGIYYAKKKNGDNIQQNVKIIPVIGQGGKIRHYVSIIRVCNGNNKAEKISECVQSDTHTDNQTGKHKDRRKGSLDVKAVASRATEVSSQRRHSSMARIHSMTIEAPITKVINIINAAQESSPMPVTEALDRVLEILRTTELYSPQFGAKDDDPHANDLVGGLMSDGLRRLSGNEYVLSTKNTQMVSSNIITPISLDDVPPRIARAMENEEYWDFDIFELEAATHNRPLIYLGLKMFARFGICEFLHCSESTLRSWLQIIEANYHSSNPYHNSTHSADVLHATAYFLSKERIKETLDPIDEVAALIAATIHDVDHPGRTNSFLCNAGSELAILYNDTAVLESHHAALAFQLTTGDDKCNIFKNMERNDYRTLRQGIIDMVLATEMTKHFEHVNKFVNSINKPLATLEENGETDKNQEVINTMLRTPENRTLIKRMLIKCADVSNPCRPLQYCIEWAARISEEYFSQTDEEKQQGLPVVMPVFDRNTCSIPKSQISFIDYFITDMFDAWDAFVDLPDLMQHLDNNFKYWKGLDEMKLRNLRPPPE
T2 sequence (Q9Y233 708-1055): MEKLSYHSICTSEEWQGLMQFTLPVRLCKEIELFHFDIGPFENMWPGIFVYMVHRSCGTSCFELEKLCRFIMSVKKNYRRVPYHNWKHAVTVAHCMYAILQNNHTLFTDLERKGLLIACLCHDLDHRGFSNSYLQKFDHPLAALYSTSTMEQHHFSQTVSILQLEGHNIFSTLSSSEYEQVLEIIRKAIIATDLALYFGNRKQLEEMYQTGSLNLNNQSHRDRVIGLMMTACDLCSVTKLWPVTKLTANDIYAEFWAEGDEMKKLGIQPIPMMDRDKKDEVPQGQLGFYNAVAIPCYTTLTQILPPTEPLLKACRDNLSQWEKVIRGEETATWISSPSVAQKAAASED
T4 sequence (Q9NP56 91-450): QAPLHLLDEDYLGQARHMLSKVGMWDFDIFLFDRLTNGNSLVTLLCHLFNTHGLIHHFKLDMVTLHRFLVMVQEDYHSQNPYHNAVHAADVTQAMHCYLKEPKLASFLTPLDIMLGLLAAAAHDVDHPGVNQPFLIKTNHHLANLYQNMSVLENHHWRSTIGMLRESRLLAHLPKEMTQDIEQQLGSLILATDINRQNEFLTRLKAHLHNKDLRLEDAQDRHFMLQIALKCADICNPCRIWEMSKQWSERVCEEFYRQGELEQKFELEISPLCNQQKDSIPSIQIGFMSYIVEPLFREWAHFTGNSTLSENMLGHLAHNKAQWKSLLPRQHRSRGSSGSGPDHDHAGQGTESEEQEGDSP
Dual specificity calcium/calmodulin-dependent 3',5'-cyclic nucleotide phosphodiesterase 1B, sequence (Q01064 whole entry): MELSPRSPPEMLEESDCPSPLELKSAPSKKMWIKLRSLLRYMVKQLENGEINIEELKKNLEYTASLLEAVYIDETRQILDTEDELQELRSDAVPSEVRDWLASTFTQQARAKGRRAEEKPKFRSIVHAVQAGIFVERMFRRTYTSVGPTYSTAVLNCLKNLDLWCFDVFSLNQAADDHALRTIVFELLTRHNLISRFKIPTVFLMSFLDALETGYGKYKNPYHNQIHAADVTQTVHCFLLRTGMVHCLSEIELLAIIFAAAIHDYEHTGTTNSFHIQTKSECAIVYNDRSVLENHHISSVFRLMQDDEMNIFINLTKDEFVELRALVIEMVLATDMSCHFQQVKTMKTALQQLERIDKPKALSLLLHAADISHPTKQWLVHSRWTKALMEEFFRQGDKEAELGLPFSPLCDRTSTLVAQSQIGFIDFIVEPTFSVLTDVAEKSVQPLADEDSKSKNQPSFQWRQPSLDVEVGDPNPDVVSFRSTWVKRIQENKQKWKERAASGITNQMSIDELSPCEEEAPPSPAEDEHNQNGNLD
T5 sequence (Q13370 650-1084): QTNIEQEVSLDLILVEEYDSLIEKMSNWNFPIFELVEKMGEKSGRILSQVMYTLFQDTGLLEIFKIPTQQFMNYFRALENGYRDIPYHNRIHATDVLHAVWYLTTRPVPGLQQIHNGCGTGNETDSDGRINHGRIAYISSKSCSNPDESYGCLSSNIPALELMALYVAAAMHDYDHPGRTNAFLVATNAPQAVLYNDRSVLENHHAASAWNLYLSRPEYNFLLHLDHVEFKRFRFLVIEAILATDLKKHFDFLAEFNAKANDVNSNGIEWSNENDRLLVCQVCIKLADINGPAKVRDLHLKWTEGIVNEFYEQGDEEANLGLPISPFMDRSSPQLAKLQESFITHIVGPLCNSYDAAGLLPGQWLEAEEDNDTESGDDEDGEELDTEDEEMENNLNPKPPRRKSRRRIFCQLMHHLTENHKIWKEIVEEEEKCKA
T6 sequence (O76083 226-593): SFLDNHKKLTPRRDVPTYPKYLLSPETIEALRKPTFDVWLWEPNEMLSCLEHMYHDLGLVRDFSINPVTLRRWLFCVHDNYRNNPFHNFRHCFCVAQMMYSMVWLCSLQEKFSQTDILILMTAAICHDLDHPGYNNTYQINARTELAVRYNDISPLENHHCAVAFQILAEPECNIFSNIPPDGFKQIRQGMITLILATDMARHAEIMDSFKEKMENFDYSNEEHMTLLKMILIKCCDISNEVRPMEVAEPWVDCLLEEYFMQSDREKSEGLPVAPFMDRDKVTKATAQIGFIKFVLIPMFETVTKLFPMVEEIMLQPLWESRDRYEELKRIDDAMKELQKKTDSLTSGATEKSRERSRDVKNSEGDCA

`CCCc1nc(C)c2c(=O)[nH]c(-c3cc(S(=O)(=O)N4CCN(CC)CC4)ccc3OCC)nn12` was tested, and the IC50 [1] was 57 µM, the IC50 [2] was 0.24 µM and the IC50 [3] was 0.88 µM. For the same compound, the IC50 [4] was 3.1 µM.
With `CN1CC(=O)N2[C@H](c3ccc4c(c3)OCO4)c3[nH]c4ccccc4c3C[C@@H]2C1=O` the IC50 [5] was 50 µM, the IC50 [1] was > 200 µM and the IC50 [3] was 19 µM. For the same compound, the IC50 [6] was 74 µM, the IC50 [4] was 130 µM and the IC50 [7] was 280 µM. For the same compound, the IC50 [8] was 150 µM.
For `CCCOc1cc(C2(C)CNC(=O)O2)ccc1OC` (racemic) [5-(4-methoxy-3-propoxyphenyl)-5-methyl-1,3-oxazolidin-2-one], the IC50 [5] was > 200 µM, the IC50 [1] was > 200 µM and the IC50 [2] was > 200 µM. For the same compound, the IC50 [3] was 63 µM, the IC50 ([4]; pH 7.5, 30 °C) was > 200 µM and the IC50 [7] was > 200 µM. The IC50 [9] was > 200 µM and the IC50 [8] was > 200 µM.
With `COc1ccc([C@@H]2CNC(=O)C2)cc1OC1CCCC1` (racemic) [Adeo] the IC50 [5] was > 200 µM, the IC50 [1] was > 200 µM and the IC50 [2] was > 200 µM. For the same compound, the IC50 [6] was > 200 µM, the IC50 ([4]; pH 7.5, 30 °C) was > 200 µM and the IC50 [7] was > 200 µM. The IC50 [8] was > 200 µM.
In the case of `COc1ccc(C(=O)Nc2c(Cl)cncc2Cl)cc1OC1CCCC1` [3-(cyclopentyloxy)-N-(3,5-dichloropyridin-4-yl)-4-methoxybenzamide], the IC50 [5] is reported as 68 µM, the IC50 [1] is reported as > 200 µM and the IC50 [2] is reported as 1.6 µM. It also gave an IC50 [4] of 54 µM, an IC50 [7] of 11 µM and an IC50 [9] of 3.5 µM. The IC50 [8] was > 200 µM.
`COc1cc(-c2ccc(=O)[nH]n2)ccc1OC(F)F` [6-[4-(difluoromethoxy)-3-methoxyphenyl]-2,3-dihydropyridazin-3-one] was tested, and the IC50 [5] was > 200 µM, the IC50 [1] was 160 µM and the IC50 [2] was 140 µM. The IC50 [3] was 14 µM, the IC50 ([4]; pH 7.5, 30 °C) was > 200 µM and the IC50 [7] was 1.5 µM. For the same compound, the IC50 [9] was 81 µM and the IC50 [8] was > 200 µM.
`COc1ccc(C(C)=NOC(N)=O)cc1OC1CCCC1` [(E)-{1-[3-(cyclopentyloxy)-4-methoxyphenyl]ethylidene}amino carbamate] gave an IC50 [5] of 190 µM, an IC50 [1] of 120 µM and an IC50 [2] of 57 µM. For the same compound, the IC50 [3] was 27 µM, the IC50 [10] was 1 µM and the IC50 [6] was 0.99 µM. It also gave an IC50 ([4]; pH 7.5, 30 °C) of 89 µM, an IC50 [7] of 9.4 µM and an IC50 [9] of 53 µM. For the same compound, the IC50 [8] was > 200 µM.
Work on `COc1ccc(C2(C#N)CCC(C(=O)O)CC2)cc1OC1CCCC1` (stereo not drawn) [Ariflo] yielded an IC50 [5] of 87 µM, an IC50 [1] of 7 µM and an IC50 [2] of 21 µM. For the same compound, the IC50 [3] was 73 µM, the IC50 ([4]; pH 7.5, 30 °C) was 160 µM and the IC50 [7] was 87 µM. For the same compound, the IC50 [9] was 53 µM and the IC50 [8] was > 200 µM.
In the case of `O=C(Nc1c(Cl)cncc1Cl)c1ccc(OC(F)F)c(OCC2CC2)c1` [DAXAS], the IC50 [5] is reported as > 200 µM, the IC50 [1] is reported as > 200 µM and the IC50 [2] is reported as 25 µM. The IC50 [3] was > 200 µM, the IC50 [6] was > 200 µM and the IC50 [4] was > 200 µM. The IC50 [7] was > 200 µM, the IC50 [9] was 17 µM and the IC50 [8] was > 200 µM.
